Data set [1] addresses T1, baculovirus-expressed human trkA cytoplasmic domain (Homo sapiens, UniProt P04629).
T1 construct: baculovirus-expressed human trkA cytoplasmic domain; made in house
In words: trkA tyrosine kinase activity inhibition, ELISA-based assay. In kind it is biochemical. The conditions noted are these: read-out: trkA (% inhibition @ 300 nM); 300 nM compound; 40 μM ATP; value printed in parentheses. As for the experimental part:
Selected isomeric fused pyrrolocarbazole and isoindolone compounds were tested for their ability to inhibit the kinase activity of baculovirus-expressed human trkA cytoplasmic domain using an ELISA-based assay as previously described (Angeles et al, Anal. Biochem. 236: 49-55, 1996). Briefly, the 96-well microtiter plate was coated with substrate solution (recombinant human phospholipase C-γl/glutathione S-transferase fusion protein (Rotin et al., EMBO J., II: 559-567, 1992). Inhibition studies were performed in 100 μl assay mixtures containing 50 mM Hepes, pH 7.4, 40 μM ATP, 10 mM MnCl2, 0.1% BSA; 2% DMSO, and various concentrations of inhibitor. The reaction was initiated by addition of trkA kinase and allowed to proceed for 15 minutes at 37° C. An antibody to phosphotyrosine (UBI) was then added, followed by a secondary enzyme-conjugated antibody, alkaline phosphatase-labelled goat anti-mouse IgG (Bio-Rad). The activity of the bound enzyme was measured via an amplified detection system (Gibco-BRL). Inhibition data were analyzed using the sigmoidal dose-response (variable slope) equation in GraphPad Prism.

The target of data set [2] is T2, baculovirus-expressed VEGF receptor (human flk-1, KDR, VEGFR2) kinase domain (Homo sapiens, UniProt P35968).
T2 construct: VEGF receptor (human flk-1, KDR, VEGFR2) kinase domain; made in house
Kind of data set: VEGF receptor kinase activity inhibition, ELISA assay. Format: biochemical. Particulars: 40 μM ATP; value printed without parentheses; read-out: VEGFR kinase IC50. As for the experimental part: Isomeric fused pyrrolocarbazole and isoindolone compounds were examined for their inhibitory effects on the kinase activity of baculovirus-expressed VEGF receptor (human flk-1, KDR, VEGFR2) kinase domain using the procedure described for the trkA kinase ELISA assay described above. The kinase reaction mixture, consisting of 50 mM Hepes, pH 7.4, 40 μM ATP, 10 mM MnCl2, 0.1% BSA, 2% DMSO, and various concentrations of inhibitor, was transferred to PLC-γ/GST-coated plates. VEGFR kinase was added and the reaction was allowed to proceed for 15 min at 37° C. Detection of phosphorylated product was accomplished by addition of anti-phosphotyrosine antibody (UBI). A secondary enzyme-conjugated antibody was delivered to capture the antibody-phosphorylated PLC-γ/GST complex. The activity of the bound enzyme was measured via an amplified detection system (Gibco-BRL). Inhibition data were analyzed using the sigmoidal dose-response (variable slope) equation in GraphPad Prism Results are summarized in Table 6.
For orientation: An ELISA detects its analyte on a solid surface through an enzyme-linked reagent.

Data set [3] deals with T3, baculovirus-expressed PDGFβ receptor kinase domain (Homo sapiens, UniProt P09619).
T3 construct: baculovirus-expressed PDGFβ receptor kinase domain; made in house
Kind of data set: PDGF receptor kinase activity inhibition, ELISA assay. The conditions noted are these: read-out: PDGFRβ (% inhibition @ 1 μM); 1 μM compound; 20 μM ATP; value printed in parentheses. In kind it is biochemical. The method, then: Isomeric fused pyrrolocarbazole and isoindolone compounds were examined for their inhibitory effects on the kinase activity of baculovirus-expressed PDGFβ receptor kinase domain using the trkA kinase ELISA described above. Assays were performed in substrate (PLC-γ/GST)-coated 96-well microtiter plates. Each 100-μl reaction mixture contained 50 mM HEPES, pH 7.4, 20 μM ATP, 10 mM MnCl2, 0.1% BSA, 2% DMSO, and various concentrations of inhibitor. The reaction was initiated by addition of prephosphorylated recombinant human enzyme (10 ng/ml PDGFβ) and allowed to proceed for 15 minutes at 37° C. The prephosphorylated enzyme was prepared prior to use by incubation of the kinase in buffer containing 20 μM ATP and 10 mM MnCl2 for 1 hour at 4 C. Detection of phosphorylated product was done by adding horseradish peroxidase (HRP)-conjugated anti-phosphotyrosine antibody (UBI). The HRP substrate solution containing 3,3′-5,5′-tetramethylbenzidine and hydrogen peroxide was later added and the plates were incubated for 10 minutes at room temperature. The reaction was quenched with acid and the resulting absorbance was read at 450 nm using a Microplate Bio-kinetics Reader (Bio-Tek Instrument EL 312e). Inhibition data were analyzed using the sigmoidal dose-response (variable slope) equation in GraphPad Prism.

The values below come from patent publication US7291732B2, “Isomeric fused pyrrolocarbazoles and isoindolones” (Cephalon, Inc., priority 1999, dated 2007).

Molecules are shown by their SMILES. Bounds are passed on as bounds.

T3 sequence (P09619 600-962 limits assumed): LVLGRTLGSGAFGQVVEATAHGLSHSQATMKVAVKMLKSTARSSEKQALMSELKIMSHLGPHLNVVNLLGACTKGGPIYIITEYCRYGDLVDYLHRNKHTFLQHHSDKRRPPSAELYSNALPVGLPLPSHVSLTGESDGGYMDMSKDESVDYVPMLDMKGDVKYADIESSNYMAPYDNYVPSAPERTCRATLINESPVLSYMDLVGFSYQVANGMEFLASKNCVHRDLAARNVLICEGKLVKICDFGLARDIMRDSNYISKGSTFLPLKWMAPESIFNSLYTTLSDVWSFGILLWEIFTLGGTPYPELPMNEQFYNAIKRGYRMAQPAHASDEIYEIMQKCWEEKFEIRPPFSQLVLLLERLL
T2 sequence (P35968 834-1162 limits assumed): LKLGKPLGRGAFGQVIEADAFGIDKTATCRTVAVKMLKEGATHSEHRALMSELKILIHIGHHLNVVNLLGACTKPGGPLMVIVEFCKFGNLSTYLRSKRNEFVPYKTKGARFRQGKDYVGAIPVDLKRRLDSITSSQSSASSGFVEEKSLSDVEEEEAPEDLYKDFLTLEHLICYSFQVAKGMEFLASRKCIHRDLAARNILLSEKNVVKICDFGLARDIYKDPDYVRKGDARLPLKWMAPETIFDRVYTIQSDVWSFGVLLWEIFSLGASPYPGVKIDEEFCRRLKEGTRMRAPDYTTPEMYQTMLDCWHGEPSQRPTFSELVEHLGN
T1 sequence (P04629 440-796 limits assumed): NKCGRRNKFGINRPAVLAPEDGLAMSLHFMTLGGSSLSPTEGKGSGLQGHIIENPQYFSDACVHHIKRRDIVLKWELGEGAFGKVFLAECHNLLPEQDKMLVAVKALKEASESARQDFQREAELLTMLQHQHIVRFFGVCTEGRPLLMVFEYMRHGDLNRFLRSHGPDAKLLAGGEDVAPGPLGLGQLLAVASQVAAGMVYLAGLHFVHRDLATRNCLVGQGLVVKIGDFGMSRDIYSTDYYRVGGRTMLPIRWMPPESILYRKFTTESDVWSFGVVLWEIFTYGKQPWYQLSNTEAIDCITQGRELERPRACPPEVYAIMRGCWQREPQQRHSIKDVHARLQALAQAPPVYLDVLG

As usually defined, the inhibition is how much of the control response was suppressed. One may read the melting point as the temperature of the solid-liquid transition. A word on the IC50: it is the concentration needed to halve the response being measured. `O=C1NC(=O)c2c1c1c(c3[nH]c4ccc(Br)cc4c23)-c2ccccc2CC1` [IV-9] registered a melting point greater than 300 °C. For the same compound, the inhibition at 0.3 µM in data set [1] is 6%. For the same compound, the IC50 in data set [2] was 2.86 µM. Moreover, in data set [3], the inhibition at 1 µM was 20%.
